Where “and” joins values, the source holds several entries; their conditions need not be identical. Identical values can stand only once. Like-named read-outs stand apart in the source and are kept apart here.
Assays:
[1] = design: method as in PMID 33711431; conditions: read-out: DPPH scavenging IC50; cited from earlier work
[2] = target: rat intestinal α-glucosidase; test: Rat intestinal α-glucosidase inhibitory activity; assay type: biochemical; conditions: IC50 > 1000 μM = inactive
Description: The inhibitory activity of rat intestinal α-glucosidase was determined according to previously reported method with slight modifications. This procedure was performed by classifying four mixtures in different groups. The mixture (1) labelled “Blank of enzyme reaction” contained the mixture and DMSO (10 µL), sodium phosphate buffer (50 µL), glucose kit (80 µL), enzyme (20 µL) and substrate (20 µL maltose, sucrose 20 µL). A 10 µL of sample and samples with various concentrations of compounds was added to the well Plates (3) and (4). A 50 µL of sodium phosphate buffer (pH 6.9) was then added to well Plates (1) and (3), and a 30 µL of the buffer was added to well Plates (2) and (4), respectively. The substrate (maltose, 20 µL; sucrose 20 µL) was then added to the Plates (2) and (4). A glucose kit (80 µL each) and the enzyme (20 µL) were added to all plates and were incubated for 10 min for maltose and 40 min for sucrose. Finally, the absorbance was then measured at λ = 520 nm using a microplate reader (BioTek ELx800TM, BioTek Instruments, Inc., Winooski, VT, USA).

[3] = Ferric reducing-antioxidant power (FRAP) assay; conditions: for FRAP: reduction power
Description: The FRAP assay was determined according to the described method using 300 mM acetate buffer, 40 mM HCl, 10 mM (2,4,6 Tris(2-pyridyl)-s-triazine (TPTZ)), 20 mM FeCl3·6H2O. For standard curve comparison, a 10:1:1 (acetate buffer: TPTZ: H2O) and sample ratio 10:1:1 (acetate buffer: TPTZ: FeCl3·6H2O) were constructed. The standard curve was prepared using various concentrations of FeSO4·7H2O. The reaction mixture was incubated at 37 °C for 30 min followed by measurement of the absorbance at 593 nm. In this test, the reduction capacity of the tested compound calculated concerning the reaction signal given by the Fe^2+ solution. The FRAP value was expressed as µM Fe^2+/g ((Frap value of sample (µM) = abs (sample) × FRAP value of std (µM)/abs (std).

P. falciparum strain 3D7 = test: In vitro antiplasmodial assay (pLDH method); assay type: cell-based; conditions: Plasmodium falciparum; for inhibition at 10 µg/mL: read-out: % Inhibition (10 μg/mL)
Description: The parasites used in this test were synchronized (Ring stage) with ± 0.3% parasitemia (2% hematocrit). […] The well plates were put in the chamber with mix gas atmosphere (O2 5%, CO2 5% and N2 90%) and incubated for 72 h at 37 °C. After that, the plate was harvested and stored at −30 °C. After 24 h, the pLDH assay was performed by reading the absorbance at 650 nm using a SpectraMax Paradigm® Multi-Mode microplate reader.

Plasmodium falciparum = conditions: read-out: IC50 against Plasmodium falciparum; cited from earlier work
[4] = DPPH radical scavenging assay; conditions: for IC50: IC50 > 1000 μM = inactive
Description: DPPH (1,1-diphenyl-2-picrylhydrazyl) was used for the antioxidant test using quercetin and gallic acid as controls. The compounds were diluted at concentrations of 159.73, 79.87, 39.93, 19.97, 9.98 µg/mL. A total 1 mL of DPPH 6 × 10^−5 M solution, complete with 33 µL of the compound, was incubated at 37 °C for 20 min. […] The radical inhibitory activity was calculated using the equation [(Ab-As)/Ab] × 100%.

[5] = ABTS radical scavenging assay; conditions: for IC50: IC50 > 1000 μM = inactive
Description: The antioxidant activity was also determined by free radical ABTS (2,2″-azinobis (3-ethyl benzothiazoline-6-sulfonic acid) according to the reported procedure. In this test, 7 mM ABTS solution was prepared and mixed with a buffer solution of potassium peroxydisulfate, incubated for 16 h, and protected from light. A total of 10 μL of the sample and 1 mL of the ABTS was incubated for 4 min and measured at a wavelength of 734 nm. This experiment was performed triplo using quercetin and gallic acid as controls. The ABTS inhibitory activity was calculated by the equation [(Ab-As)/Ab] × 100%.

[6] = target: T1, Porcine pancreatic α-amylase (Sus scrofa, UniProt P00690); test: α-Amylase inhibitory activity; assay type: biochemical; conditions: read-out: α-Amylase Starch IC50
T1 sequence (P00690 16-511): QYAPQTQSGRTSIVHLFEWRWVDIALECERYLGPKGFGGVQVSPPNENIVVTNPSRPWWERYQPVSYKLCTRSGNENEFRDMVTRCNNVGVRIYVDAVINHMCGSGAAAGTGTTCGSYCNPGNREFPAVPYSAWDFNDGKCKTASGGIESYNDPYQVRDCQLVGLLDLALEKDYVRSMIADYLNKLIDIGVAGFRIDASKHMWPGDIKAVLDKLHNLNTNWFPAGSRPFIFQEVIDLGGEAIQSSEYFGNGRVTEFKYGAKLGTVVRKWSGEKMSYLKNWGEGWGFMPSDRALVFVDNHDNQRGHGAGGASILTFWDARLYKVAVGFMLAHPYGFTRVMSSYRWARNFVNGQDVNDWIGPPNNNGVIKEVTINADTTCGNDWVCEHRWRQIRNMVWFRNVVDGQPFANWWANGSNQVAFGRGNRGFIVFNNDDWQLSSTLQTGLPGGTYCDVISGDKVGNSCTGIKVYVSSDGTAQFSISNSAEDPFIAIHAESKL
Description: The modified α-amylase enzyme inhibition test was conducted for antidiabetic activity evaluation. A total of 10 mg sample was dissolved in 1 mL DMSO and 0.1 M phosphate buffer and 5 mg α-amylase solution (Porcine pancreatic α-amylase) in 1 mL phosphate buffer pH 6.9 was added. A 100 mg of potato starch (substrate) was heated in 5 mL of 0.1 M phosphate buffer for 5 min and cooled to room temperature. Then, 20 µL of the sample and 50 µL of substrate were mixed into 30 µL of phosphate buffer. The mixture was pre-incubated for 5 min followed by the addition of 20 µL of α-amylase enzyme and then incubation at 37 °C for 15 min. The color development was performed by adding 50 µL of 1M HCl and 50 µL of 10% iodine solution. Finally, the absorbance was measured at a wavelength of 650 nm.

α-glucosidase = conditions: cited from earlier work
[7] = substrate maltose, read-out: α-Glucosidase Maltose IC50
[8] = substrate sucrose, read-out: α-Glucosidase Sucrose IC50
[9] = P. falciparum 3D7, 10 μg/mL, 72 h
[10] = P. falciparum 3D7, 72 h, read-out: IC50

| Compound | IC50 [2, 7] [µM] | IC50 [2, 8] [µM] | FRAP [3] | IC50 [4] [µM] | IC50 [5] [µM] | IC50 [6] [µM] | inhibition at 10 µg/mL (P. falciparum strain 3D7; [9]) [%] | DPPH % Inhibition (159.7 μg/mL) [4] [%] | ABTS % Inhibition (99 μg/mL) [5] [%] | further results |
| --- | --- | --- | --- | --- | --- | --- | --- | --- | --- | --- |
| O=c1c2cc(O)c(O)cc2oc2cc(O)cc(O)c12 [1,3,6,7-tetrahydroxyxanthone] |  |  |  |  |  |  |  |  |  | IC50 [1]: 28.4 µM |
| C[C@H]1O[C@H](O[C@H]2[C@H](O)[C@@H](O)[C@@H](O[C@H]3[C@H](O)[C@@H](O)C(O)O[C@@H]3CO)O[C@@H]2CO)[C@H](O)[C@@H](O)[C@@H]1N[C@H]1C=C(CO)[C@@H](O)[C@H](O)[C@H]1O (stereo partly drawn) [Acarbose, reference compound] | 3.4 ± 0.27 | 4.6 ± 0.51 |  |  |  |  |  |  |  |  |
| O=C1O[C@H]([C@@H](O)CO)C(O)=C1O [Ascorbic acid, reference compound] |  |  | 30.6 ± 0.27 µM Fe^2+/g |  |  |  |  |  |  | FRAP ([3]; listed as ascorbic acid): 30.6 µM Fe^2+/g; IC50 [1]: 48 µM |
| CCN(CC)CCCC(C)Nc1ccnc2cc(Cl)ccc12 (stereo not drawn) [Chloroquine, reference compound] |  |  |  |  |  |  |  |  |  | IC50 (P. falciparum strain 3D7; 3D7, 72 h): 0.006 ± 0.01 µM; inhibition at 10 µg/mL (P. falciparum strain 3D7; 3D7, 72 h): 98.8 ± 0.25%; IC50 (Plasmodium falciparum): 0.3 µM |
| COc1cc(C)c2c(=O)c3c(O)cc(OC)cc3oc2c1 [Compound 1, lichexanthone] | > 1000 | > 1000 | 5.7 ± 0.57 µM Fe^2+/g | > 1000 | > 1000 | > 1000 | < 10 |  |  | α-Glucosidase Maltose IC50 ([2]; substrate maltose): inactive; α-Glucosidase Sucrose IC50 ([2]; substrate sucrose): inactive |
| C=CC(C)(C)c1cc(O)c(O)c2c(=O)c3cc4c(c(O)c3oc12)OC(C)(C)C=C4 [Compound 2, subelliptenone H] |  | 43.8 ± 1.51 | 166.3 µM Fe^2+/g and 166.3 ± 1.47 µM Fe^2+/g | 19.4 ± 0.15 | 2.7 ± 0.05 | 41.3 ± 1.24 | 86.8 ± 0.33 | 95.29 ± 0.05 | 97.29 ± 0.04 | IC50 (P. falciparum strain 3D7; [10]): 3.3 ± 0.04 µM |
| C=CC(C)(C)c1cc(O)c2oc3c(O)cccc3c(=O)c2c1O [Compound 3, 12b-hydroxy-des-D-garcigerrin A] | 109 ± 1.31 | 79.6 ± 2.01 | 203.9 ± 1.19 µM Fe^2+/g | 18.9 ± 0.1 | 0.05 ± 0.01 | 28.7 ± 0.35 | 87.9 ± 0.23 | 96.83 ± 0.03 | 98.31 ± 0.05 | Iron reducing power, fold greater than ascorbic acid ([3]; relative to ascorbic acid): approximately 6 fold; ABTS IC50, fold lower than quercetin ([5]; relative to quercetin): 4 fold; IC50 (P. falciparum strain 3D7; [10]): 5 ± 0.04 µM |
| C=CC(C)(C)c1cc(O)c2oc3c4c(ccc3c(=O)c2c1O)C=CC(C)(C)O4 [Compound 4, garciniaxanthone B] | 139.4 ± 1.21 | 75.9 ± 2.11 | 192.7 µM Fe^2+/g and 192.7 ± 0.77 µM Fe^2+/g | 14.1 ± 0.07 | 7.9 ± 0.01 | 10.8 ± 0.04 | < 10 | 95.38 ± 0.08 | 96.15 ± 0.01 |  |
| C=CC(C)(C)c1cc(O)c2oc3c4c(ccc3c(=O)c2c1O)[C@H](O)[C@H](O)C(C)(C)O4 [Compound 5, garcigerin A] | 91 ± 1.14 | 37.4 ± 1.2 | 187.8 µM Fe^2+/g and 187.8 ± 1.36 µM Fe^2+/g | 20.4 ± 0.22 | 6.5 ± 0.02 | 18.7 ± 0.54 | < 10 | 96.60 ± 0.05 | 97.40 ± 0.03 |  |
| O=C(O)c1cc(O)c(O)c(O)c1 [Gallic acid, reference compound] |  |  |  | 3 ± 0.01 | 0.7 ± 0.01 |  |  | 97.21± 0.01 | 96.30 ± 0.01 |  |
| O=c1c(O)c(-c2ccc(O)c(O)c2)oc2cc(O)cc(O)c12 [Quercetin, reference compound] |  |  |  | 4.1 ± 0.01 | 0.17 ± 0.01 |  |  | 96.34 ± 0.01 | 97.58 ± 0.01 |  |
| CC(C)=CCc1c(O)cc2oc3c(CC=C(C)C)c(O)c(O)c(CC=C(C)C)c3c(=O)c2c1O [garcinone E] |  |  |  |  |  |  |  |  |  | IC50 [1]: 63.1 µM |
| CC(C)=CCC/C(C)=C/Cc1c(O)c(O)cc2oc3cc(O)c(CC=C(C)C)c(O)c3c(=O)c12 [norcowanin] |  |  |  |  |  |  |  |  |  | IC50 (α-glucosidase): 1.7 µM |
| garcinoxanthones SV |  |  |  |  |  |  |  |  |  | IC50 [1]: 68.5 µM |
| subelliptenone F |  |  |  |  |  |  |  |  |  | IC50 (α-glucosidase): 4.1 µM |

— article PMC8533219, “Evaluation of the Antioxidant, Antidiabetic, and Antiplasmodial Activities of Xanthones Isolated from Garcinia forbesii and Their In Silico Studies” (Biomedicines, 2021)
